In patent US20230091225A1, “Bifunctional chimeric heterocyclic compounds for targeted degradation of androgen receptors and use thereof” (HINOVA PHARMACEUTICALS INC., priority 2019, published 2023):
Like-named read-outs stand apart in the source and are kept apart here.

Biological target: T1, androgen receptor (AR) (Homo sapiens, UniProt P10275)
T1 sequence (P10275 1-920): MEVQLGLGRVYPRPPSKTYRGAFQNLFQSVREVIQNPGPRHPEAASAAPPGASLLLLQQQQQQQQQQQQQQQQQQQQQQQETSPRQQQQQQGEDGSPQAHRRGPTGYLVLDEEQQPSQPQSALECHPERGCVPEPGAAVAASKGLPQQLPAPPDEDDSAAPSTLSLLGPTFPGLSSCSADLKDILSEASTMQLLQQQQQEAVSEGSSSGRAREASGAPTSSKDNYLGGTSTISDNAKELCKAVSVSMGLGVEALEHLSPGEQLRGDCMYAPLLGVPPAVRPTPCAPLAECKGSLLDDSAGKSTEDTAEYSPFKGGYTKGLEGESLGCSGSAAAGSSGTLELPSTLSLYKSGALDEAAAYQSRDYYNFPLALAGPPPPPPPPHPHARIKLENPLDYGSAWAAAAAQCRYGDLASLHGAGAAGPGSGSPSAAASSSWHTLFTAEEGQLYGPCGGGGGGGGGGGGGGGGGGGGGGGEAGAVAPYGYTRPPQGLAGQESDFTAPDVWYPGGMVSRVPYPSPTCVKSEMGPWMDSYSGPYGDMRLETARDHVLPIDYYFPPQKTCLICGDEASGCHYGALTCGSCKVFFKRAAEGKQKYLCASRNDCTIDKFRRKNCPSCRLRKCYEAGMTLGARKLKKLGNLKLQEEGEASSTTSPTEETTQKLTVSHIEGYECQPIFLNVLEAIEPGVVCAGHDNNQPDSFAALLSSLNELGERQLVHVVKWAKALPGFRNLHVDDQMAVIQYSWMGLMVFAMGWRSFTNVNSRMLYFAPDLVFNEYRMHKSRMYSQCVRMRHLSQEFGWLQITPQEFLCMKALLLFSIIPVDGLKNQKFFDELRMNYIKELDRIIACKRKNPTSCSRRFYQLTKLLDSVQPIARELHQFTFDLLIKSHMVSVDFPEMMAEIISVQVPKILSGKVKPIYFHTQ
Test: Degradation of androgen receptor (AR) protein in VCaP cells by ELISA
Format: cell-based
Conditions: for Dmax: VCaP

[1] = AR degradation, VCaP cells, 16 h, ELISA, Table 3-1, read-out: DC50
[2] = AR degradation, VCaP cells, 16 h, ELISA, Table 3-2, read-out: DC50
[3] = AR degradation, VCaP cells, 16 h, ELISA, Table 3-2, read-out: Dmax (%)
[4] = AR degradation, VCaP cells, 16 h, ELISA, Table 3-1, read-out: Dmax (%)

| SMILES | DC50 [1] [nM] | Dmax [4] [%] | further results |
| --- | --- | --- | --- |
| CC1(C)[C@H](Oc2ccc(C#N)c(Cl)c2)C(C)(C)[C@H]1N1Cc2nc(C#CC3CCC(N4CC5CC4CN5c4ccc5c(c4)C(=O)N(C4CCC(=O)NC4=O)C5=O)CC3)ccc2C1=O (single isomer, unassigned) [Compound 353, 2-Chloro-4-((1r,3r)-3-(2-((4-(5-(2-(2,6-dioxopiperidin-3-yl)-1,3-dioxoisoindolin-5-yl)-2,5-diazabicyclo[2.2.1]heptan-2-yl)cyclohexyl)ethynyl)-5-oxo-5,7-dihydro-6H-pyrrolo[3,4-b]pyridin-6-yl)-2,2,4,4-tetramethylcyclobutoxy) benzonitrile] | > 300 | – | – |
| CC1(C)[C@H](Oc2ccc(C#N)c(Cl)c2)C(C)(C)[C@H]1N1Cc2nc(C#CC3CCC(N4CC5CC4CN5c4ccc5c(c4)C(=O)N(C4CCC(=O)NC4=O)C5=O)CC3)cnc2C1=O (stereo partly drawn) [Compound 389, 2-Chloro-4-((1r,3r)-3-(2-((4-(5-(2-(2,6-dioxopiperidin-3-yl)-1,3-dioxoisoindolin-5-yl)-2,5-diazabicyclo[2.2.1]heptan-2-yl)cyclohexyl)ethynyl)-5-oxo-5,7-dihydro-pyrrolo[3,4-b]pyrazine-26-yl)-2,2,4,4-tetramethylcyclobutoxy) benzonitrile] | – | – | DC50 [2]: > 300 nM; Dmax [3]: < 40% |
| N#Cc1ccc(O[C@H]2CC[C@H](NC(=O)c3cnc(N4CCC(N5CCC6(CC5)CN(c5cc7c(cc5F)C(=O)N(C5CCC(=O)NC5=O)C7=O)C6)CC4)cn3)CC2)cc1Cl (stereo partly drawn) [Compound 287, N-((1r,4r)-4-(3-chloro-4-cyanophenoxy)cyclohexyl)-5-(4-(2-(2-(2,6-dioxopiperidin-3-yl)-6-fluoro-1,3-dioxoisoindolin-5-yl)-2,7-diazaspiro[3.5]nonan-7-yl)piperidin-1-yl)pyrazine-2-carboxamide] | < 10 | > 80 | – |
| CC1(C)[C@H](Oc2ccc(C#N)c(Cl)c2)C(C)(C)[C@H]1N1Cc2nc(C#C[C@H]3CC[C@H](N4CCN(c5ccc6c(c5)C(=O)N(C5CCC(=O)NC5=O)C6=O)CC4)CC3)ccc2C1=O (stereo partly drawn) [Compound 325] | < 10 | > 80 | – |
| N#Cc1ccc(O[C@H]2CC[C@H](NC(=O)c3cnc(N4CC5(CCN(C6CCN(c7cc8c(cc7F)C(=O)N(C7CCC(=O)NC7=O)C8=O)CC6)C5)C4)cn3)CC2)cc1Cl (stereo partly drawn) [Compound 82, N-((1r,4r)-4-(3-chloro-4-cyanophenoxy)cyclohexyl)-5-(6-(1-(2-(2,6-dioxopiperidin-3-yl)-6-fluoro-1,3-dioxoisoindolin-5-yl)piperidine-4-yl)-2,6-diazaspiro [3.4]octane-2-yl)pyrazine-2-carboxamide] | < 10 | – | Dmax: > 80% |
| N#Cc1ccc(O[C@H]2CC[C@H](NC(=O)c3cnc(N4CCC(CN5CCC6(CC5)CN(c5ccc7c(c5)C(=O)N(C5CCC(=O)NC5=O)C7=O)C6)CC4)nn3)CC2)cc1Br (stereo partly drawn) [Compound 419] | – | – | Dmax (%): ++++ (key: A: >80%; B: 79%-50%; C: 49%-25%; D: <25%); DC50 (read-out: DC50): < 10 nM |
| CC1(C)[C@H](Oc2ccc(C#N)c(Cl)c2)C(C)(C)[C@H]1N1Cc2nc(C#C[C@H]3CC[C@H](N4CCN(c5ccc6c(c5)C(=O)N(C5CCC(=O)NC5=O)C6=O)CC4)CC3)cnc2C1=O (stereo partly drawn) [Compound 381] | 10 to 100 | > 80 | – |
| CC1(C)[C@H](Oc2ccc(C#N)c(Cl)c2)C(C)(C)[C@H]1N1Cc2nc(C#CC3CCC(N4CC5(CCN(c6cc7c(cc6F)C(=O)N(C6CCC(=O)NC6=O)C7=O)C5)C4)CC3)ccc2C1=O (stereo partly drawn) [Compound 371] | 10 to 100 | – | Dmax (%) (AR degradation, VCaP cells, 16 h, ELISA, Table 3-1): ++++ (>80%) |
| N#Cc1ccc(O[C@H]2CC[C@H](NC(=O)c3ccc(N4CCN(C5CC6(CCN(c7ccc8c(c7)C(=O)N(C7CCC(=O)NC7=O)C8=O)CC6)C5)CC4)nn3)CC2)cc1Cl (stereo partly drawn) [Compound 271, N-((1r,4r)-4-(3-chloro-4-cyanophenoxy)cyclohexyl)-6-(4-(7-(2-(2,6-dioxopiperidin-3-yl)-1,3-dioxoisoindolin-5-yl)-7-azaspiro[3.5]nonan-2-yl)piperazin-1-yl)pyridazine-3-formamide] | < 10 | > 80 | – |
| N#Cc1ccc(O[C@H]2CC[C@H](NC(=O)c3ccc(N4CC5(CCN(C6CCN(c7cc8c(cc7F)C(=O)N(C7CCC(=O)NC7=O)C8=O)CC6)C5)C4)nn3)CC2)cc1Cl (stereo partly drawn) [Compound 81, N-((1r,4r)-4-(3-chloro-4-cyanophenoxy)cyclohexyl)-6-(6-(1-(2-(2,6-dioxopiperidin-3-yl)-6-fluoro-1,3-dioxoisoindolin-5-yl)piperidine-4-yl)-2,6-diazaspiro[3.4]octan-2-yl)pyridazine-3-formamide] | < 10 | – | Dmax: > 80% |
| CC1(C)[C@H](Oc2ccc(C#N)c(Cl)c2)C(C)(C)[C@H]1N1Cc2nc(C#CC3CCC(N4CC5(CN(c6ccc7c(c6)C(=O)N([C@@H]6CCC(=O)NC6=O)C7=O)C5)C4)CC3)ccc2C1=O (stereo partly drawn) [Compound 350, 2-Chloro-4-((1r,3r)-3-(2-((4-(6-(2-(2,6-dioxopiperidin-3-yl)-1,3-dioxoisoindolin-5-yl)-2,6-diazaspiro[3.3]heptane-2-yl)cyclohexyl)ethynyl)-5-oxo-5,7-dihydro-6H-pyrrolo[3,4-b]pyridin-6-yl)-2,2,4,4-tetramethylcyclobutoxy) benzonitrile] | – | – | Dmax (%): ++ (key: ++++: >80%; +++: 80%-60%; ++: 60%-40%; +: <40%); DC50 (read-out: DC50): 100 to 300 nM |
| N#Cc1ccc(O[C@H]2CC[C@H](NC(=O)c3ccc(N4CCC5(CC4)CC(N4CCN(c6cc7c(cc6F)C(=O)N(C6CCC(=O)NC6=O)C7=O)CC4)C5)nn3)CC2)cc1Cl (stereo partly drawn) [Compound 269] | < 10 | > 80 | – |
| N#Cc1ccc(O[C@H]2CC[C@H](NC(=O)c3ccc(N4CCC5(CCN(C6CCN(c7cc8c(cc7F)C(=O)N(C7CCC(=O)NC7=O)C8=O)CC6)C5)C4)nn3)CC2)cc1Cl (stereo partly drawn) [Compound 166, N-((1r,4r)-4-(3-chloro-4-cyanophenoxy)cyclohexyl)-6-(7-(1-(2-(2,6-dioxopiperidin-3-yl)-6-fluoro-1,3-dioxoisoindolin-5-yl)piperidine-4-yl)-2,7-diazaspiro[4.4]nonan-2-yl)pyridazine-3-formamide] | < 10 | > 80 | – |
| N#Cc1ccc(O[C@H]2CC[C@H](NC(=O)c3cnn([C@H]4CC[C@H](CN5CCC6(CC5)CN(c5cc7c(cc5F)C(=O)N(C5CCC(=O)NC5=O)C7=O)C6)CC4)c3)CC2)cc1Cl (stereo partly drawn) [Compound 246] | 10 to 100 | – | Dmax: 60 to 80% |
| N#Cc1ccc(O[C@H]2CC[C@H](NC(=O)c3ccc(N4C[C@H]5CC[C@@H](C4)N5C[C@H]4[C@@H]5CN(c6cc7c(cc6F)C(=O)N(C6CCC(=O)NC6=O)C7=O)C[C@@H]54)nn3)CC2)cc1Cl (stereo partly drawn) [Compound 239] | – | – | DC50: 10 to 100 nM; Dmax: 60 to 80% |
| [2H]C([2H])([2H])N(C(=O)c1ccc(N2CCC(CN3CCN(c4cc5c(cc4F)C(=O)N(C4CCC(=O)NC4=O)C5=O)CC3)CC2)nn1)[C@H]1CC[C@H](Oc2ccc(C#N)c(Cl)c2)CC1 (stereo partly drawn) [Compound 133, N-((1r,4r)-4-(3-chloro-4-cyanophenoxy)cyclohexyl)-6-(4-((4-(2-(2,6-dioxopiperidin-3-yl)-6-fluoro-1,3-dioxoisoindolin-5-yl)piperazin-1-yl)methyl)piperidin-1-yl)-N-deuteromethyl-pyridazine-3-amide] | – | – | DC50: > 300 nM; Dmax: < 40% |
| N#Cc1ccc(O[C@H]2CC[C@H](NC(=O)c3ncc(N4CCC(CN5CCC6(CC5)CN(c5ccc7c(c5)C(=O)N(C5CCC(=O)NC5=O)C7=O)C6)CC4)cn3)CC2)cc1Cl (stereo partly drawn) [Compound 135] | > 300 | < 40 | – |
| N#Cc1ccc(O[C@H]2CC[C@H](NC(=O)c3cnc(N4CCC(CN5CCC6(C5)CN(c5ccc7c(c5)C(=O)N(C5CCC(=O)NC5=O)C7=O)C6)CC4)cn3)CC2)cc1Cl (stereo partly drawn) [Compound 187, N-((1r,4r)-4-(3-chloro-4-cyanophenoxy)cyclohexyl)-5-(4-((2-(2-(2,6-dioxopiperidin-3-yl)-1,3-dioxoisoindolin-5-yl)-2,6-diazaspiro[3.4]octan-6-yl)methyl)piperidin-1-yl)pyrazine-2-carboxamide] | < 10 | > 80 | – |
| N#Cc1ccc(O[C@H]2CC[C@H](NC(=O)c3cnc(N4CC5(CN(CC6CCN(c7cc8c(cc7F)C(=O)N(C7CCC(=O)NC7=O)C8=O)CC6)C5)C4)cn3)CC2)cc1Cl (stereo partly drawn) [Compound 125] | < 10 | > 80 | – |
| N#Cc1ccc(O[C@H]2CC[C@H](NC(=O)c3ccn([C@H]4CC[C@H](CN5CCC6(CC5)CN(c5ccc7c(c5)C(=O)N(C5CCC(=O)NC5=O)C7=O)C6)CC4)n3)CC2)cc1Cl (stereo partly drawn) [Compound 416, N-((1r,4R)-4-(3-chloro-4-cyanophenoxy)cyclohexyl)-1-((1r,4R)-4-((2-(2-(2,6-dioxopiperidin-3-yl)-1,3-dioxoisoindolin-5-yl)-2,7-diazaspiro[3.5]nonan-7-yl)methyl)cyclohexyl)-1H-pyrazole-3-formamide] | – | – | DC50 [2]: < 10 nM; Dmax [3]: > 80% |
